Patent US12324893B2, “Triptan microporation delivery system” (PassPort Technologies, Inc., priority 2019, dated 2025)
Read-outs that look alike come from different tables or passages of the source.

Legend:
[1] = Administration route study in guinea pigs (Example 5); format: in vivo; settings: for AUC / Cmax / Tmax: guinea pig, blood
Protocol: This example describes an administration route study in guinea pigs using the same method mentioned in Example 4. In this study, base refers to Zomitriptan.
In this study, five groups of guinea pigs were tested under the following conditions: (1) Group 1 (10 mg base/4 ml, oral route); (2) Group 2 (5 mg base/2 ml, oral route); (3) Group 3 (2 mg base/4 mL, oral route); (4) Group 4 (2.0 mg base/cm^2, transdermal microporation); and (5) Group 5 (2 mg/200 μL, SubQ). The given bioavailability of Tables 6 is relative bioavailability against subcutaneous injection.

[2] = Effect of filament density, poration energy and filament array size on PK profile (Examples 7-9); parameters: species or system guinea pigs; settings: guinea pig, in vivo; for bioavailability: sc, relative bioavailability against SC injection, read-out: Bioavailability ± SE; for AUC / Cmax / Tmax: topical or ocular
Protocol: (§1) This example describes various effects of filament density. To investigate the effect of filament density on PK profile and side effects (pain by poration and skin irritation), these studies were conducted. The filament density mainly affects the area to be utilized for the transfer of body fluid and ingredients in between skin and patch. The range of filament density was 100 filaments/cm^2 to 400 filaments/cm^2, and the poration energy was from 3 to 4 mJ/filament.
(§2) This example describes various effects to heating energy. The poration energy is related to the pore shape such as depth and width.
(§3) This example describes the selection of a desirable filament array size. Assuming the higher dose than 2 mg dose with the conditions 400 filaments/cm^2 filament density and 4 or 5 mJ/filament energy, filament array size may need to be made bigger. The range of dose was 0.5 to 4 mg, and the range of filament array size was 1.0 to 2.0 cm^2.

[3] = Pain by poration (Examples 7-9); format: in vivo, guinea pigs
Protocol: as §1, §2, §3

[4] = Group 1: 10 mg base/4 ml, oral route
[5] = Group 2: 5 mg base/2 ml, oral route
[6] = Group 3: 2 mg base/4 mL, oral route
[7] = topical or ocular, Group 4: 2.0 mg base/cm^2, transdermal microporation
[8] = 0.5 mg, Table 17 #1: dose 0.50 mg, 4 mJ/filament, filament array area 1.0 cm^2, 400 filaments/cm^2
[9] = 2 mg, Table 13 # 1: 100 filaments/cm^2, 3 mJ/filament, area 1.0 cm^2, patch 2.00 mg Zolmitriptan
[10] = 2 mg, Table 13 # 2: 200 filaments/cm^2, 3 mJ/filament, area 1.0 cm^2, patch 2.00 mg Zolmitriptan
[11] = 2 mg, Table 13 # 3: 400 filaments/cm^2, 3 mJ/filament, area 1.0 cm^2, patch 2.00 mg Zolmitriptan
[12] = 2 mg, Table 13 # 4: 100 filaments/cm^2, 4 mJ/filament, area 1.0 cm^2, patch 2.00 mg Zolmitriptan
[13] = 2 mg, Table 13 # 5: 200 filaments/cm^2, 4 mJ/filament, area 1.0 cm^2, patch 2.00 mg Zolmitriptan
[14] = 2 mg, Table 13 # 6: 400 filaments/cm^2, 4 mJ/filament, area 1.0 cm^2, patch 2.00 mg Zolmitriptan
[15] = 2 mg, Table 15 # 1: 400 filaments/cm^2, 2 mJ/filament, area 1.0 cm^2, patch 2.00 mg Zolmitriptan
[16] = 2 mg, Table 15 # 2: 400 filaments/cm^2, 3 mJ/filament, area 1.0 cm^2, patch 2.00 mg Zolmitriptan
[17] = 2 mg, Table 15 # 3: 400 filaments/cm^2, 4 mJ/filament, area 1.0 cm^2, patch 2.00 mg Zolmitriptan
[18] = 2 mg, Table 15 # 4: 400 filaments/cm^2, 5 mJ/filament, area 1.0 cm^2, patch 2.00 mg Zolmitriptan
[19] = 2 mg, Table 17 # 2: dose 2.00 mg, 4 mJ/filament, filament array area 1.0 cm^2, 400 filaments/cm^2
[20] = 3 mg, Table 17 # 3: dose 3.00 mg, 4 mJ/filament, filament array area 1.0 cm^2, 400 filaments/cm^2
[21] = 4 mg, Table 17 # 4: dose 4.00 mg, 4 mJ/filament, filament array area 1.5 cm^2, 400 filaments/cm^2
[22] = 4 mg, Table 17 # 5: dose 4.00 mg, 4 mJ/filament, filament array area 2.0 cm^2, 400 filaments/cm^2
[23] = 4 mg, Table 17 # 6: dose 4.00 mg, 5 mJ/filament, filament array area 1.5 cm^2, 400 filaments/cm^2

A BA ([1]; Group 1: 10 mg base/4 ml, oral route, relative bioavailability against subcutaneous injection) of 16.2%, a BA ([1]; Group 2: 5 mg base/2 ml, oral route, relative bioavailability against subcutaneous injection) of 8.3% and a BA ([1]; Group 3: 2 mg base/4 mL, oral route, relative bioavailability against subcutaneous injection) of 4.5% were found for CN(C)CCc1c[nH]c2ccc(C[C@H]3COC(=O)N3)cc12 [Zolmitriptan] in this work. The BA ([1]; Group 4: 2.0 mg base/cm^2, transdermal microporation, relative bioavailability against subcutaneous injection) was 84.2%, the BA ([1]; Group 5: 2 mg/200 μL, SubQ, relative bioavailability against subcutaneous injection (reference)) was 100.0% and the AUC [1, 4] was 1390 ng·h/mL. The Cmax [1, 4] was 910 ng/mL, the Tmax [1, 4] was 26.4 min and the AUC [1, 5] was 353 ng·h/mL. For the same molecule, the Cmax [1, 5] was 259 ng/mL, the Tmax [1, 5] was 33.6 min and the AUC [1, 6] was 77 ng·h/mL. It also gave a Cmax [1, 6] of 25 ng/mL, a Tmax [1, 6] of 19.8 min and an AUC ([1]; sc, Group 5: 2 mg/200 μL, SubQ) of 1710 ng·h/mL. It also gave a Cmax ([1]; sc, Group 5: 2 mg/200 μL, SubQ) of 3880 ng/mL, a Tmax ([1]; sc, Group 5: 2 mg/200 μL, SubQ) of 5.4 min and a Cmax [1, 7] of 864 ng/mL. The Tmax [1, 7] was 30 min, the AUC ([1]; topical or ocular, Group 4: 2.0 mg base/cm^2, transdermal microporation (400 pores/cm^2, 5.2 mJ/filament)) was 1440 ng·h/mL and the bioavailability ([2]; 0.5 mg, Table 17 #1: dose 0.50 mg, 4 mJ/filament, 1.0 cm^2, 400 filaments/cm^2) was 70.6 ± 4.5%. The bioavailability ([2]; 2 mg, Table 13 # 1: 100 filaments/cm^2, 3 mJ/filament, 1.0 cm^2, 2.00 mg patch) was 11.5 ± 0.6%, the bioavailability ([2]; 2 mg, Table 13 # 2: 200 filaments/cm^2, 3 mJ/filament, 1.0 cm^2, 2.00 mg patch) was 73.8 ± 8.6% and the bioavailability ([2]; 2 mg, Table 13 # 3: 400 filaments/cm^2, 3 mJ/filament, 1.0 cm^2, 2.00 mg patch) was 85 ± 5.6%. It also gave a bioavailability ([2]; 2 mg, Table 13 # 4: 100 filaments/cm^2, 4 mJ/filament, 1.0 cm^2, 2.00 mg patch) of 50.3 ± 5.5%, a bioavailability ([2]; 2 mg, Table 13 # 5: 200 filaments/cm^2, 4 mJ/filament, 1.0 cm^2, 2.00 mg patch) of 49.9 ± 7.7% and a bioavailability ([2]; 2 mg, Table 13 # 6: 400 filaments/cm^2, 4 mJ/filament, 1.0 cm^2, 2.00 mg patch) of 102 ± 13.3%. For the same molecule, the bioavailability ([2]; 2 mg, Table 15 # 1: 400 filaments/cm^2, 2 mJ/filament, 1.0 cm^2, 2.00 mg patch) was 72.4 ± 10%, the bioavailability ([2]; 2 mg, Table 15 # 2: 400 filaments/cm^2, 3 mJ/filament, 1.0 cm^2, 2.00 mg patch) was 85 ± 5.6% and the bioavailability ([2]; 2 mg, Table 15 # 3: 400 filaments/cm^2, 4 mJ/filament, 1.0 cm^2, 2.00 mg patch) was 102 ± 13.3%. It also gave a bioavailability ([2]; 2 mg, Table 15 # 4: 400 filaments/cm^2, 5 mJ/filament, 1.0 cm^2, 2.00 mg patch) of 95.5 ± 5.3%, a bioavailability ([2]; 2 mg, Table 17 # 2: dose 2.00 mg, 4 mJ/filament, 1.0 cm^2, 400 filaments/cm^2) of 102 ± 13.3% and a bioavailability ([2]; 3 mg, Table 17 # 3: dose 3.00 mg, 4 mJ/filament, 1.0 cm^2, 400 filaments/cm^2) of 76 ± 4.9%. For the same molecule, the bioavailability ([2]; 4 mg, Table 17 # 4: dose 4.00 mg, 4 mJ/filament, 1.5 cm^2, 400 filaments/cm^2) was 88.9 ± 4.6%, the bioavailability ([2]; 4 mg, Table 17 # 5: dose 4.00 mg, 4 mJ/filament, 2.0 cm^2, 400 filaments/cm^2) was 105 ± 7.9% and the bioavailability ([2]; 4 mg, Table 17 # 6: dose 4.00 mg, 5 mJ/filament, 1.5 cm^2, 400 filaments/cm^2) was 97.9 ± 12.3%. For the same molecule, the AUC [2, 8] was 364 ± 23 ng·h/mL, the Cmax [2, 8] was 190 ± 34 ng/mL and the Tmax [2, 8] was 0.63 ± 0.13 h. It also gave an AUC [2, 9] of 238 ± 13 ng·h/mL, a Cmax [2, 9] of 60 ± 13 ng/mL and a Tmax [2, 9] of 2.75 ± 1.25 h. It also gave an AUC [2, 10] of 1520 ± 177 ng·h/mL, a Cmax [2, 10] of 520 ± 51 ng/mL and a Tmax [2, 10] of 1.31 ± 0.19 h. It also gave an AUC [2, 11] of 1750 ± 116 ng·h/mL, a Cmax [2, 11] of 487 ± 63 ng/mL and a Tmax [2, 11] of 1.63 ± 0.13 h. It also gave an AUC [2, 12] of 1040 ± 113 ng·h/mL, a Cmax [2, 12] of 222 ± 30 ng/mL and a Tmax [2, 12] of 2.75 ± 0.72 h. For the same molecule, the AUC [2, 13] was 1030 ± 159 ng·h/mL, the Cmax [2, 13] was 423 ± 30 ng/mL and the Tmax [2, 13] was 0.81 ± 0.06 h. It also gave an AUC [2, 14] of 2100 ± 275 ng·h/mL, a Cmax [2, 14] of 896 ± 191 ng/mL and a Tmax [2, 14] of 1.06 ± 0.16 h. For the same molecule, the AUC [2, 15] was 1490 ± 206 ng·h/mL, the Cmax [2, 15] was 484 ± 130 ng/mL and the Tmax [2, 15] was 2.33 ± 0.83 h. The AUC [2, 16] was 1750 ± 116 ng·h/mL, the Cmax [2, 16] was 487 ± 63 ng/mL and the Tmax [2, 16] was 1.63 ± 0.13 h. It also gave an AUC [2, 17] of 2100 ± 275 ng·h/mL, a Cmax [2, 17] of 896 ± 191 ng/mL and a Tmax [2, 17] of 1.06 ± 0.16 h. The AUC [2, 18] was 1970 ± 108 ng·h/mL, the Cmax [2, 18] was 752 ± 89 ng/mL and the Tmax [2, 18] was 1.33 ± 0.33 h. It also gave an AUC [2, 19] of 2100 ± 275 ng·h/mL, a Cmax [2, 19] of 896 ± 191 ng/mL and a Tmax [2, 19] of 1.06 ± 0.16 h. The AUC [2, 20] was 2350 ± 152 ng·h/mL, the Cmax [2, 20] was 756 ± 115 ng/mL and the Tmax [2, 20] was 1.63 ± 0.13 h. It also gave an AUC [2, 21] of 3660 ± 189 ng·h/mL, a Cmax [2, 21] of 1310 ± 129 ng/mL and a Tmax [2, 21] of 1.33 ± 0.17 h. For the same molecule, the AUC [2, 22] was 4310 ± 315 ng·h/mL, the Cmax [2, 22] was 2200 ± 358 ng/mL and the Tmax [2, 22] was 1.25 ± 0.14 h. The AUC [2, 23] was 4030 ± 506 ng·h/mL, the Cmax [2, 23] was 1710 ± 185 ng/mL and the Tmax [2, 23] was 0.75 ± 0.14 h. For the same molecule, the “Pain by poration ± SD” value ([3]; Table 13 # 1: 100 filaments/cm^2, 3 mJ/filament, area 1.0 cm^2) was 0.0 ± 0.0, the “Pain by poration ± SD” value ([3]; Table 13 # 2: 200 filaments/cm^2, 3 mJ/filament, area 1.0 cm^2) was 0.6 ± 0.5 and the “Pain by poration ± SD” value ([3]; Table 13 # 3: 400 filaments/cm^2, 3 mJ/filament, area 1.0 cm^2) was 0.5 ± 0.6. The “Pain by poration ± SD” value ([3]; Table 13 # 4: 100 filaments/cm^2, 4 mJ/filament, area 1.0 cm^2) was 0.8 ± 1.0, the “Pain by poration ± SD” value ([3]; Table 13 # 5: 200 filaments/cm^2, 4 mJ/filament, area 1.0 cm^2) was 1.8 ± 0.4 and the “Pain by poration ± SD” value ([3]; Table 13 # 6: 400 filaments/cm^2, 4 mJ/filament, area 1.0 cm^2) was 1.8 ± 0.5. The “Pain by poration ± SD” value ([3]; Table 15 # 1: 400 filaments/cm^2, 2 mJ/filament, area 1.0 cm^2) was 0.3 ± 0.5, the “Pain by poration ± SD” value ([3]; Table 15 # 2: 400 filaments/cm^2, 3 mJ/filament, area 1.0 cm^2) was 0.5 ± 0.6 and the “Pain by poration ± SD” value ([3]; Table 15 # 3: 400 filaments/cm^2, 4 mJ/filament, area 1.0 cm^2) was 1.8 ± 0.5. The “Pain by poration ± SD” value ([3]; Table 15 # 4: 400 filaments/cm^2, 5 mJ/filament, area 1.0 cm^2) was 0.8 ± 1.0, the “Pain by poration ± SD” value ([3]; Table 17 #1: dose 0.50 mg, 4 mJ/filament, 1.0 cm^2, 400 filaments/cm^2) was 0.5 ± 0.6 and the “Pain by poration ± SD” value ([3]; Table 17 # 2: dose 2.00 mg, 4 mJ/filament, 1.0 cm^2, 400 filaments/cm^2) was 1.8 ± 0.5. For the same molecule, the “Pain by poration ± SD” value ([3]; Table 17 # 3: dose 3.00 mg, 4 mJ/filament, 1.0 cm^2, 400 filaments/cm^2) was 0.3 ± 0.5, the “Pain by poration ± SD” value ([3]; Table 17 # 4: dose 4.00 mg, 4 mJ/filament, 1.5 cm^2, 400 filaments/cm^2) was 2.3 ± 0.5 and the “Pain by poration ± SD” value ([3]; Table 17 # 5: dose 4.00 mg, 4 mJ/filament, 2.0 cm^2, 400 filaments/cm^2) was 2.8 ± 0.5. The “Pain by poration ± SD” value ([3]; Table 17 # 6: dose 4.00 mg, 5 mJ/filament, 1.5 cm^2, 400 filaments/cm^2) was 2.8 ± 0.5.
